Assay results published in patent publication US20230012368A1 (Hoffmann-La Roche Inc., priority 2018, published 2023).
Structures can show the parent of a compound that is named as a salt. Where two headings read alike, the source gives them in different places.

System: Acinetobacter baumannii ATCC 17978
Test: Antimicrobial susceptibility testing: 90% growth inhibitory concentration (IC90) determination
Type: cell-based
Conditions: 90% growth inhibitory concentration, Acinetobacter baumannii ATCC17978, Iso-Sensitest broth, OD 600 nm over 16h, read-out: ATCC17978 IC90
Procedure, shortened: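 Compounds serially twofold diluted (e.g. 50 to 0.097 μM final) in Iso-Sensitest broth, inoculated at ~5×10^(5) CFU/ml, incubated at 35±2° C. OD600 read every 20 minutes over 16h. IC90 taken as concentration inhibiting 90% of growth during logarithmic phase.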

[1] = Acinetobacter baumannii, ATCC17978, 16 h

| IC90 [1] [nM] | SMILES | IC90 [nM] |
| --- | --- | --- |
| 650 | CCc1cc(Nc2nccn3c(-c4ccc(OC)c(F)c4F)cnc23)ccc1C(=O)N[C@@H](C)C(=O)NCCNC [Example 567, 4-[[3-(2,3-difluoro-4-methoxy-phenyl)imidazo[1,2-a]pyrazin-8-yl]amino]-2-ethyl-N-[(1S)-1-methyl-2-[2-(methylamino)ethylamino]-2-oxo-ethyl]benzamide] | – |
| 340 | Cc1cc(Nc2nccn3c(-c4ccc(OC(F)F)cc4)cnc23)ccc1C(=O)NCC1CCN(C(=N)N)CC1 [Example 24, N-((1-carbamimidoyl-piperidin-4-yl)methyl)-4-((3-(4-(difluoromethoxy)phenyl)imidazo[1,2-a]pyrazin-8-yl)amino)-2-methylbenzamide] | – |
| 100 | CCc1cc(Nc2nccn3c(-c4ccc(OCC#N)c(F)c4F)cnc23)ccc1C(=O)NCCNC(=O)[C@@H](N)[C@@H](C)O [Example 138, N-[2-[[(2S,3R)-2-amino-3-hydroxy-butanoyl]amino]ethyl]-4-[[3-[4-(cyanomethoxy)-2,3-difluoro-phenyl]imidazo[1,2-a]pyrazin-8-yl]amino]-2-ethyl-benzamide formate] | – |
| 140 | CCc1cc(Nc2nccn3c(-c4ccc(OC(F)F)c(F)c4F)cnc23)ccc1C(=O)NCCc1nnc(C)[nH]1 [Example 295, 4-[[3-[4-(difluoromethoxy)-2,3-difluorophenyl]imidazo[1,2-a]pyrazin-8-yl]amino]-2-ethyl-N-[2-(5-methyl-4H-1,2,4-triazol-3-yl)ethyl]benzamide] | – |
| – | CCc1cc(Nc2nccn3c(-c4ccc(OC)c(F)c4F)cnc23)ccc1C(=O)NCC(=O)N(C)CCNC [Example 158, 4-((3-(2,3-difluoro-4-methoxyphenyl)imidazo[1,2-a]pyrazin-8-yl)amino)-2-ethyl-N-(2-(methyl(2-(methylamino)ethyl)amino)-2-oxoethyl)benzamide; formic acid] | 160 |
| 690 | Cc1cc(Nc2nccn3c(-c4ccc(Cl)c(F)c4F)cnc23)ccc1C(=O)NCCCN [Example 214, N-(3-aminopropyl)-4-[[3-(4-chloro-2,3-difluorophenyl)imidazo[1,2-a]pyrazin-8-yl]amino]-2-methylbenzamide;hydrochlo-ride] | – |
| 90 | COc1ccc(-c2cnc3c(Nc4ccc(C(=O)N(C)CCC5CCNCC5)c(C)c4)nccn23)c(F)c1F [Example 63, 4-((3-(2,3-difluoro-4-methoxyphenyl)imidazo [1,2-a]pyrazin-8-yl)amino)-N,2-dimethyl-N-(2-(piperidin-4-yl)ethyl)benzamide] | – |
| 2700 | COc1ccc(-c2cnc3c(Nc4ccc(C(=O)NCC5(O)CCNC5)c(C)c4)nccn23)cc1F (stereo not drawn) [Example 286, 4-[[3-(3-fluoro-4-methoxyphenyl)imidazo[1,2-a]pyrazin-8-yl]amino]-N-[(3-hydroxypyrrolidin-3-yl)methyl]-2-methylbenzamide;2,2,2-trifluoroacetic acid] | – |
| 460 | COc1ccc(-c2cnc3c(Nc4ccc(C(=O)NCCCN5CCS(=O)(=O)CC5)c(C)c4)nccn23)cc1F [Example 36, N-[3-(1,1-dioxo-1,4-thiazinan-4-yl)propyl]-4-[[3-(3-fluoro-4-methoxy-phenyl)imidazo[1,2-a]pyrazin-8-yl]amino]-2-methyl-benzamide; 2,2,2-trifluoroacetic acid] | – |
| 340 | CCc1cc(Nc2nccn3c(-c4ccc(OC)c(F)c4F)cnc23)ccc1C(=O)NCCCNC(=O)C(CNC(=N)N)NC(=O)[C@@H](N)CCC(=O)O (mixture of isomers) [Example 155, (4S)-4-Amino-5-((1-((3-(4-((3-(2,3-difluoro-4-methoxyphenyl)imidazo[1,2-a]pyrazin-8-yl)amino)-2-ethylbenzamido)propyl)amino)-3-guanidino-1-oxopropan-2-yl)amino)-5-oxopentanoic acid trihydrochloride (Epimers 1:1)] | – |
| 530 | CCc1cc(Nc2nccn3c(-c4ccc(Oc5ccc(OC)cn5)c(F)c4F)cnc23)ccc1C(=O)NCCNC(=O)[C@@H](N)CCNC(=N)N [Example 449, N-[2-[[(2S)-2-amino-4-guanidino-butanoyl]amino]ethyl]-4-[[3-[2,3-difluoro-4-[(5-methoxy-2-pyridyl)oxy]phenyl]imidazo [1,2-a]pyrazin-8-yl]amino]-2-ethyl-benzamide; formic acid] | – |
| 130 | CNC(=O)c1ccc(Nc2nccn3c(-c4ccc(OC)c(F)c4)cnc23)cc1Cl [Example 22, 2-chloro-4-((3-(3-fluoro-4-methoxyphenyl)imidazo [1,2-a]pyrazin-8-yl)amino)-N-methylbenzamide] | – |
| 2100 | COc1ccc(-c2cnc3c(Nc4ccc(C(=O)NCCCN)c(CC(F)F)c4)nccn23)c(F)c1F [Example 316, N-(3-aminopropyl)-2-(2,2-difluoroethyl)-4-[[3-(2,3-difluoro-4-methoxyphenyl)imidazo[1,2-a]pyrazin-8-yl]amino]benzamide;formic acid] | – |
| 320 | CCc1cc(Nc2nccn3c(-c4ccc(OC)c(F)c4F)cnc23)ccc1C(=O)NCCN1CCN(CCCC(=O)O)CC1 [Example 444, 4-(4-(2-(4-((3-(2,3-difluoro-4-methoxyphenyl)imidazo[1,2-a]pyrazin-8-yl)amino)-2-ethylbenzamido)ethyl)pipera-zin-1-yl)butanoic acid] | – |
| 120 | CCc1cc(Nc2nccn3c(-c4ccc(OC)c(F)c4F)cnc23)ccc1C(=O)NCCNC(=O)[C@H](N)CCCNC(=N)N [Example 125, N-[2-[[(2R)-2-amino-5-guanidino-pentanoyl]amino]ethyl]-4-[[3-(2,3-difluoro-4-methoxy-phenyl)imidazo[1,2-a]pyrazin-8-yl]amino]-2-ethyl-benzamide formate] | – |
| 390 | CNCCCN1CCc2cc(Nc3nccn4c(-c5ccc(OC)c(F)c5F)cnc34)ccc2C1=O [Example 568, 6-[[3-(2,3-difluoro-4-methoxy-phenyl)imidazo[1,2-a]pyrazin-8-yl]amino]-2-[3-(methylamino)propyl]-3,4-dihydroisoquinolin-1-one] | – |
| 650 | CCc1cc(Nc2nccn3c(-c4ccc(Cl)c(F)c4F)cnc23)ccc1C(=O)NCCNC(=O)[C@@H](N)CCCNC(=N)N [Example 341, N-[2-[[(2S)-2-amino-5-carbamimidamidopentanoyl]amino]ethyl]-4-[[3-(4-chloro-2,3-difluorophenyl)imidazo[1,2-a]pyrazin-8-yl]amino]-2-ethylbenzamide] | – |
| 240 | COc1ccc(-c2cnc3c(Nc4ccc(C(=O)N(C)Cc5ccncn5)c(C)c4)nccn23)cc1F [Example 39, 4-[[3-(3-fluoro-4-methoxy-phenyl)imidazo[1,2-a]pyrazin-8-yl]amino]-N,2-dimethyl-N-(pyrimidin-4-ylmethyl)benzamide] | – |
| 820 | COc1ccc(-c2cnc3c(Nc4ccc(C(=O)N(C)CCn5ccnc5)c(C)c4)nccn23)cc1F [Example 105, 4-[[3-(3-fluoro-4-methoxy-phenyl)imidazo[1,2-a]pyrazin-8-yl]amino]-N-(2-imidazol-1-ylethyl)-N,2-dimethyl-benzamide] | – |
| 1200 | Cc1cc(Nc2nccn3c(-c4ccc(OCC#CCN)c(F)c4)cnc23)ccc1C(=O)N(C)C [Example 313, 4-[[3-[4-(4-aminobut-2-ynoxy)-3-fluorophenyl]imidazo[1,2-a]pyrazin-8-yl]amino]-N,N,2-trimethylbenzamide] | – |
| 680 | CCN(CC)C(=O)c1ccc(Nc2nccn3c(-c4ccc(OC)c(Cl)c4)cnc23)cc1 [Example 215, 4-[[3-(3-chloro-4-methoxyphenyl)imidazo[1,2-a]pyrazin-8-yl]amino]-N,N-diethylbenzamide] | – |
| 240 | CNCCN1CCc2cc(Nc3nccn4c(-c5ccc(OC)c(F)c5F)cnc34)ccc2C1=O [Example 300, 6-[[3-(2,3-difluoro-4-methoxyphenyl)imidazo[1,2-a]pyrazin-8-yl]amino]-2-[2-(methylamino)ethyl]-3,4-dihydroisoquinolin-1-one;hydrochloride] | – |
| 470 | COc1ccc(-c2cnc3c(Nc4ccc(C(=O)N5CCC(C(=O)NCC6CN(C)C6)CC5)c(C)c4)nccn23)cc1F [REF 114, 1-(4-((3-(3-fluoro-4-methoxyphenyl)imidazo [1,2-a]pyrazin-8-yl)amino)-2-methylbenzoyl)-N-((1-methylazetidin-3-yl)methyl)piperidine-4-carboxamide] | – |
| 160 | Cc1cc(Nc2nccn3c(-c4ccc(OC(F)F)cc4)cnc23)ccc1C(=O)NCCCCCN1CCOCC1 [Example 25, 4-((3-(4-(difluoromethoxy)phenyl)imidazo[1,2-a]pyrazin-8-yl)amino)-2-methyl-N-(5-morpholinopentyl) benzamide] | – |
| 70 | CCc1cc(Nc2nccn3c(-c4ccc(OC)c(F)c4F)cnc23)ccc1C(=O)NC(C)CNC(C)=N (stereo not drawn) [Example 169, 4-[[3-(2,3-difluoro-4-methoxyphenyl)imidazo[1,2-a]pyrazin-8-yl]amino]-N-[1-(ethanimidoylamino)propan-2-yl]-2-ethylbenzamide] | – |
| 310 | CCc1cc(Nc2nccn3c(-c4ccc(Oc5ncccn5)c(F)c4F)cnc23)ccc1C(=O)NCCCNC(=O)C1CCN(CC2CCNC2)CC1 (stereo not drawn) [Example 545, N-(3-(4-((3-(2,3-difluoro-4-(pyrimidin-2-yloxy)phenyl)imidazo[1,2-a]pyrazin-8-yl)amino)-2-ethylbenzamido)propyl)-1-(pyrrolidin-3-ylmethyl)piperidine-4-carboxamide formate] | – |
| 480 | CCc1cc(Nc2nccn3c(-c4ccc(OC)c(F)c4F)cnc23)ccc1C(=O)NCC[C@H](C)NC(=O)[C@@H](N)CCCNC(=N)N [Example 336, N-[(3S)-3-[[(2S)-2-amino-5-carbamimidamidopentanoyl]amino]butyl]-4-[[3-(2,3-difluoro-4-methoxyphenyl)imidazo[1,2-a]pyrazin-8-yl]amino]-2-ethylbenzamide; hydrochloride] | – |
